Experimental data published in patent US20250215052A1, “INHIBITORS OF PICK1 AND USES THEREOF” (University of Copenhagen, priority 2018, published 2025).
pKi: −log10 of the molar value.

Legend:
PICK1 = molecular target: T1, PICK1 (Rattus norvegicus, UniProt Q9EP80); assay: biochemical; type: binding; details: for Fold affinity change: compared to TAT-P4-(C5)2
T1 construct: made in house; host or cells: E. coli BL21-DE3-pLysS
Method: The data was plotted in GraphPad Prism 7.0 and fitted to a ‘One site-Fit’ Ki curve and the apparent affinities (Ki) for the unlabelled peptides were determined using correction for depletion.

SNI mice = assay: SNI neuropathic pain model, subcutaneous administration, Von Frey; type: in vivo; details: 10 μmol/kg s.c.
Method: Mice: 8 weeks old C57BI6J mice (from Charles River)
10 μmol/kg peptide solution was subcutaneously administered (100 μL/10 g).
Spared Nerved Injury surgery: The surgery was performed on anaesthetized mice. A complete ligature and transection of the common peroneal and tibial distal branches of the sciatic nerve was performed, leaving the sural branch intact. The operated side is referred to as the ipsilateral side and the non-operated side is referred to as the contralateral side. 7 days post-surgery, a decrease of threshold response to Von Frey filaments of ipsilateral hind paw was observed.
Mechanical threshold response: The mechanical threshold response of the operated mice was measured with calibrated Von Frey filaments using up/down method, and the 50% threshold (g) was calculated (see equation 1). Mechanical pain responses are defined as paw withdrawal, flinching and/or paw licking following filament prick. The experimenter was blinded to mice treatment. One baseline measure was performed before surgery, one measure 7 days after surgery (D+7) before drug's administration. One measure was performed 1 h, 2 h, 3 h and 4 h post drug administration. n=8 mice/timepoint for peptide treatment.
Statistical analysis: Statistical analysis was performed using Graphpad Prism 7.0. Pain threshold, measured as paw withdrawal threshold, was compared between time “before drug effect” and time points after drug administration (+1, +2, +3, +4 hrs), or against vehicle control (all time points). Two-way RM ANOVA followed by Dunnet's multiple comparison tests. Significance level set to p<0.05.

[1] = FPLC size exclusion chromatography of CPP variants in PBS; type: physicochemical; details: Superdex 200 Increase 10/300, relative to P4-(C5)2
Method: All samples were run in a 200 μL volume on a Superdex 200 Increase 10/300 column on an AKTA purifier FPLC system. The absorbance at 280 nm as a function of elution volume was normalized to the maximal absorbance of each peptide and plotted using GraphPadPrism 7.0.

T1 sequence (Q9EP80 whole entry): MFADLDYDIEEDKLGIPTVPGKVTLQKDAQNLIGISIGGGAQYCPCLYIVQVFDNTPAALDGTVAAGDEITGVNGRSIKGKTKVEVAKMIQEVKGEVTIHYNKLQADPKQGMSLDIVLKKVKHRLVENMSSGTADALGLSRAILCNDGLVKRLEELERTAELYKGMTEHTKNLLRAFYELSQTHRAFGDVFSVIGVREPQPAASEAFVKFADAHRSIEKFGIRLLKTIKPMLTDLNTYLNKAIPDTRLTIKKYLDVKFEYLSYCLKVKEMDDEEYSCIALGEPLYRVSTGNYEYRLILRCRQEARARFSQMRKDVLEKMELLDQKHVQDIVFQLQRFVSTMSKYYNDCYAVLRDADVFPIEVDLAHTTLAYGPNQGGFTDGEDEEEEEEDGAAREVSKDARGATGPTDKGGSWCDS

Structure (SMILES)	pKi (PICK1)	Fold affinity change (PICK1)	ipsilateral paw mechanical threshold compared to before drug administration (SNI mice; 1 h)	ipsilateral paw mechanical threshold compared to before drug administration (SNI mice; 2 h)	ipsilateral paw mechanical threshold compared to vehicle (SNI mice; 2 h)	in-solution oligomeric behavior from elution volume [1]	ipsilateral paw mechanical threshold compared to before drug administration (SNI mice; any time-point)	ipsilateral paw mechanical threshold compared to vehicle (SNI mice; any time-point)
CC(C)C[C@H](NC(=O)[C@H](C)NC(=O)[C@H](CCCCN)NC(=O)[C@H](CC(C)C)NC(=O)[C@H](C)NC(=O)[C@H](CC(C)C)NC(=O)[C@H](CCCCN)NC(=O)[C@H](CC(C)C)NC(=O)[C@H](C)NC(=O)[C@H](CC(C)C)NC(=O)[C@@H](N)CCCCN)C(=O)N[C@@H](CCCCN)C(=O)N[C@@H](C)C(=O)N[C@@H](C)C(=O)N[C@@H](CC(C)C)C(=O)N[C@@H](CCCCN)C(=O)N[C@@H](CC(C)C)C(=O)N[C@@H](C)C(=O)N(CCOCCOCCC(=O)N[C@@H](Cc1c[nH]cn1)C(=O)N[C@@H](Cc1c[nH]c2ccccc12)C(=O)N[C@@H](CC(C)C)C(=O)N[C@@H](CCCCN)C(=O)N[C@H](C(=O)O)C(C)C)CCOCCOCCC(=O)N[C@@H](Cc1c[nH]cn1)C(=O)N[C@@H](Cc1c[nH]c2ccccc12)C(=O)N[C@@H](CC(C)C)C(=O)N[C@@H](CCCCN)C(=O)N[C@H](C(=O)O)C(C)C [MAP-P4-(C5)2]	8.29	0.8 fold	significant increase	significant increase	significant increase	forms higher oligomeric structures than P4-(C5)2	–	–
CC[C@H](C)[C@H](NC(=O)[C@H](CCCCN)NC(=O)[C@@H](NC(=O)[C@H](CCC(N)=O)NC(=O)[C@@H](N)CCCNC(=N)N)[C@@H](C)CC)C(=O)N[C@@H](Cc1c[nH]c2ccccc12)C(=O)N[C@@H](Cc1ccccc1)C(=O)N[C@@H](CCC(N)=O)C(=O)N[C@@H](CC(N)=O)C(=O)N[C@@H](CCCNC(=N)N)C(=O)N[C@@H](CCCNC(=N)N)C(=O)N[C@@H](CCSC)C(=O)N[C@@H](CCCCN)C(=O)N[C@@H](Cc1c[nH]c2ccccc12)C(=O)N[C@@H](CCCCN)C(=O)N[C@@H](CCCCN)C(=O)N(CCOCCOCCC(=O)N[C@@H](Cc1c[nH]cn1)C(=O)N[C@@H](Cc1c[nH]c2ccccc12)C(=O)N[C@@H](CC(C)C)C(=O)N[C@@H](CCCCN)C(=O)N[C@H](C(=O)O)C(C)C)CCOCCOCCC(=O)N[C@@H](Cc1c[nH]cn1)C(=O)N[C@@H](Cc1c[nH]c2ccccc12)C(=O)N[C@@H](CC(C)C)C(=O)N[C@@H](CCCCN)C(=O)N[C@H](C(=O)O)C(C)C [PNT-P4-(C5)2]	–	–	–	–	–	smaller oligomers than P4-(C5)2 or direct interaction with the column material	did not show significant increase	no significant increase
CC[C@H](C)[C@H](NC(=O)[C@H](CCCCN)NC(=O)CNC(=O)[C@H](CC(C)C)NC(=O)[C@H](CC(C)C)NC(=O)[C@H](Cc1ccc(O)cc1)NC(=O)CNC(=O)[C@H](C)NC(=O)[C@H](CO)NC(=O)[C@H](CC(N)=O)NC(=O)[C@H](CC(C)C)NC(=O)[C@@H](NC(=O)[C@H](Cc1c[nH]c2ccccc12)NC(=O)CN)[C@@H](C)O)C(=O)N[C@@H](CC(N)=O)C(=O)N[C@@H](CC(C)C)C(=O)N[C@@H](CCCCN)C(=O)N[C@@H](C)C(=O)N[C@@H](CC(C)C)C(=O)N[C@@H](C)C(=O)N[C@@H](C)C(=O)N[C@@H](CC(C)C)C(=O)N[C@@H](C)C(=O)N[C@@H](CCCCN)C(=O)N[C@@H](CCCCN)C(=O)N[C@H](C(=O)N[C@@H](CC(C)C)C(=O)N(CCOCCOCCC(=O)N[C@@H](Cc1c[nH]cn1)C(=O)N[C@@H](Cc1c[nH]c2ccccc12)C(=O)N[C@@H](CC(C)C)C(=O)N[C@@H](CCCCN)C(=O)N[C@H](C(=O)O)C(C)C)CCOCCOCCC(=O)N[C@@H](Cc1c[nH]cn1)C(=O)N[C@@H](Cc1c[nH]c2ccccc12)C(=O)N[C@@H](CC(C)C)C(=O)N[C@@H](CCCCN)C(=O)N[C@H](C(=O)O)C(C)C)[C@@H](C)CC [TP10-P4-(C5)2]	–	0.5 fold	–	significant increase	significant increase	smaller oligomers than P4-(C5)2 or direct interaction with the column material	–	–
